Columns and labels:
TK6 cells [1] = assay: Cytotoxicity analysis (Guava ViaCount, cell viability); type: cell-based, human; details: 26 h; for concentration up to which no cytotoxicity and cytostasis was induced: Guava ViaCount assay
Procedure: In the preliminary phase of the research, we determined the concentrations to be used in the subsequent experiments aimed at evaluating the potential genotoxicity of different molecules under study. First, we assessed the 2C-H, 2C-I, 2C-B, 25B-NBOMe, and MDMA-induced cytotoxicity after 26 h treatment (time required by TK6 cells to carry out two cell cycles) by measuring the percentage of live cells at the different concentrations tested (6.25, 12.5, 25, 35, 50, 75 µM). This value was normalized on the one obtained in the untreated control cultures C (-) equal to 100% in order to check whether the cellular viability complied with the OECD threshold (equal to 55 ± 5%).
(§1) In all experiments, aliquots of 2 × 10^5 of TK6 cells were treated with increasing concentrations of phenethylamines from 0 to 75 µM and incubated for 26 h, corresponding to two replication cycles for the analysis of cytotoxicity, cytostasis, apoptosis, and genotoxicity, while for the analysis of ROS, 1 h of treatment was performed.
Cytotoxicity assay was performed as previously described by Lenzi et al.. Briefly, at the end of the phenethylamines treatment time, 1.5 × 10^5 cells were stained with Guava ViaCount Reagent. The reagent contains the Propidium Iodide (PI) that allows us to discriminate viable from dead cells based on different permeability to DNA-binding dye.
180 μL of reagent were added to 20 μL of cell suspension and incubated for 5 min at room temperature (RT). After, a total of 1000 events were acquired and analyzed by Guava ViaCount software.
The results obtained from the samples treated with different concentrations of phenethylamines were normalized on those obtained from the untreated control cultures, accounted equal to 100%.

TK6 cells [2] = assay: Cytostasis analysis (Relative Population Doubling, Guava ViaCount); type: cell-based, human; details: for Relative Population Doubling (RPD): 26 h treatment, vs untreated control C (-) = 100%, mean ± SEM; for concentrations that caused an RPD value well above 55 ± 5% (OECD threshold): 26 h, tested 6.25-75 µM
Description: In addition, to make the genotoxicity test reliable, it is necessary to check the cellular proliferation in order to verify that a sufficient number of cells has undergone mitosis and so transmitted the genetic damage suffered to the daughter cells. For this purpose, the OECD recommends the measurement of the Relative Population Doubling (RPD) to estimate the cytostasis and, analogously to the cytotoxicity, establishes a threshold at most equal to 55 ± 5% [45].
as §1
In parallel, always using the Guava ViaCount Reagent, the number of cells seeded at time 0 and that measured at the end of the phenethylamines treatment time was used to check the correct replication in the control cultures and to compare it to that measured in the treated cultures by the RPD, calculated as the following formula [46, 47]: RPD= (No. of Population doublings in treated cultures)/(No. of Population doublings in control cultures) × 100
Similarly to cytotoxicity, the cytostasis was checked in order to verify that cell proliferation respected the threshold established by the OECD guideline (55 ± 5%).

TK6 cells [3] = assay: Apoptosis analysis (Guava Nexin Assay); type: cell-based, human; details: 26 h
Procedure: as §1
The percentage of apoptotic cells was evaluated by the Guava Nexin Assay according to the procedure by Lenzi et al..
Briefly, at the end of the phenethylamines treatment time, the percentage of apoptotic cells was assessed using the Guava Nexin Reagent. The reagent contains the 7-aminoactinomycin D (7-AAD), a cell non-permeant dye, that allows discrimination between live and dead cells and the Annexin-V-PE that allows the identification of apoptotic cells by binding the phosphatidylserine on the cell surface.
100 μL of reagent were added to 100 μL of cell suspension (~1 × 10^5 cells) and incubated for 20 min at RT. After, a total of 2000 events were acquired and analyzed by Guava Nexin software.
The apoptotic cell percentages recorded in the cultures treated with phenethylamines different concentrations were normalized on those recorded in the untreated control cultures, accounted equal to 1 and expressed as apoptotic fold increase.

TK6 cells [4] = assay: Genotoxicity analysis (micronucleus frequency, automated flow cytometric protocol); type: cell-based, human; details: for MNi frequency fold increase: vs C (-); for relative genotoxic potency: comparison within the series
Procedure: as §1
The analysis of the MNi frequency was performed using a new automated flow cytometric protocol that we recently developed in our laboratory. The detailed protocol is described in the paper by Lenzi et al. and was used in our previous publication to analyze the genotoxicity of some synthetic cannabinoids.
Briefly, at the end of the phenethylamines treatment time, 7 × 10^5 cells were collected and incubated with 7-AAD at RT for 5 min, after which the cells were lysed and stained with SYTOX Green for 1 h. After, a total of 10,000 nuclei, derived from viable and proliferating cells (7-AAD negative), and the corresponding number of micronuclei were acquired. The discrimination between nuclei and MNi occurs on the basis of the different size analyzed by Forward Scatter (FSC), and the different intensity of green fluorescence (SYTOX Green).
The MNi frequencies (number of MNi/10,000 nuclei) recorded in treated cultures were normalized on those recorded in the untreated control cultures, accounted equal to 1 and expressed as MNi frequency fold increase.
As recommended by OECD guideline 487, we used MMC and VINB as positive controls, being known clastogen and aneuploidogen agents, respectively.

TK6 cells [5] = assay: ROS analysis (DCFH2-DA fluorescence); type: cell-based, human; details: 1 h; 35 µM for 2C-H, 2C-I and MDMA, 12.5 µM for 2C-B and 25B-NBOMe; vs C (-) equal to 1
Procedure: Lastly, in order to identify a possible mechanism of action at the basis of the genotoxic activity, TK6 cells were treated for 1 h with the highest concentration tested for each substance: 35 µM for 2C-H, 2C-I and MDMA, and 12.5 µM for 2C-B and 25B-NBOMe, and then the possible ROS induction was measured.
as §1
At the end of the phenethylamines treatment time, 2 × 10^5 cells were centrifuged, resuspended in PBS1X to measure intracellular ROS level and stained at 37 °C in the dark for 20 min with 2′,7′-dichlorodihydrofluorescin diacetate (DCFH2-DA). After, a total of 5000 events, derived from viable cells, were acquired and analyzed using Guava Incyte software.
The fluorescence intensity of 2′,7′-dichlorofluorescin (DCF) (which forms in cells in the presence of ROS) recorded in treated cultures was normalized on those recorded in the untreated control cultures, accounted equal to 1 and expressed as a ROS fold increase.

[6] = tested on: undifferentiated and differentiated human SH-SY5Y cells; design: method as in PMID 28067045; details: cited from earlier work
primary rat hepatocytes = tested on: primary rat hepatocytes; design: method as in PMID 27255387; details: 24 h; cited from earlier work
C2C12 myoblast cells = tested on: C2C12 myoblast cells; design: method as in PMID 30925718; details: concentrations 30 times higher than in this study, 24 h; cited from earlier work
HepG2 = tested on: HepG2; design: method as in PMID 28645576; details: 24 h treatment; cited from earlier work
SH-SY5Y = tested on: SH-SY5Y; design: method as in PMID 28067045, PMID 30925718, PMID 28527032; details: 2–24 h treatment, concentration-dependent (1000–3000 μM); cited from earlier work
HepG2 cells = tested on: HepG2 cells; design: method as in PMID 31068823; details: cited from earlier work
TK6 cells [7] = tested on: TK6 cells; design: method as in PMID 27637481; details: CYP1A1, 1B1 and 1A2 not expressed; cited from earlier work
[8] = vs untreated control C (-) equal to 1, tested concentrations
[9] = both tested concentrations, 6.25 µM and 12.5 µM, 26 h

| Compound | Relative Population Doubling (RPD) (TK6 cells [2]; 6.25 µM) | Relative Population Doubling (RPD) (TK6 cells [2]; 12.5 µM) | Relative Population Doubling (RPD) (TK6 cells [2]; 25 µM) | Relative Population Doubling (RPD) (TK6 cells [2]; 35 µM) | Relative Population Doubling (RPD) (TK6 cells [2]; 50 µM) | Relative Population Doubling (RPD) (TK6 cells [2]; 75 µM) | concentrations that caused an RPD value well above 55 ± 5% (OECD threshold) (TK6 cells [2]) | further results |
| --- | --- | --- | --- | --- | --- | --- | --- | --- |
| COc1cc(CCNCc2ccccc2OC)c(OC)cc1Br [25B-NBOMe, 4-bromo-2,5-dimethoxy-N-[(2-methoxyphenyl)methyl]-benzeneethanamine] | 86.4% ± 1.3 | 81.2% ± 2.0 | 50.0% ± 0.8 | 1.0% ± 0.2 | 0.0% | 0.0% | up to 12.5 µM | concentration up to which no cytotoxicity and cytostasis was induced (TK6 cells [1]): up to 12.5 µM; apoptosis fold increase (TK6 cells [3]; [8]): never reached a doubling; MNi frequency fold increase (TK6 cells [4]; [9]): increased at both the tested concentrations; relative genotoxic potency (TK6 cells [4]): stronger genotoxic agents than 2C-I and 2C-H |
| CNC(C)Cc1ccc2c(c1)OCO2 (stereo not shown) [MDMA, 3,4-methylenedioxy-methamphetamine, reference compound] | 96.0% ± 1.0 | 96.0% ± 0.8 | 98.7% ± 0.9 | 98.0% ± 1.5 | 96.0% ± 1.2 | 91.9% ± 1.3 | all the concentrations tested | cytotoxic and cytostatic effect (TK6 cells [1]; all concentrations tested (6.25-75 µM)): did not show a cytotoxic and cytostatic effect; apoptosis fold increase (TK6 cells [3]; [8]): never reached a doubling; MNi frequency fold increase (TK6 cells [4]; 25 and 35 µM, 26 h): did not increase the MNi frequency in any case; genotoxicity (MN test outcome) (TK6 cells [4]; 26 h, without metabolic activation): not genotoxic; ROS fold increase (mean fluorescence intensity) (TK6 cells [5]): did not highlight any ROS level increase; production of ROS [6]: unable to trigger the production of ROS; ROS levels (primary rat hepatocytes): increase of ROS levels; mitochondrial superoxide production (C2C12 myoblast cells): increase in the mitochondrial superoxide production |
| COc1cc(CCN)c(OC)cc1I [2C-I, 2,5-Dimethoxy-4-iodophenethylamine] | 90.9% ± 0.7 | 89.6% ± 2.2 | 72.5% ± 2.0 | 63.9% ± 1.6 | 54.8% ± 0.9 | 30.8% ± 1.0 | up to 35 µM | concentration up to which no cytotoxicity and cytostasis was induced (TK6 cells [1]): up to 35 µM; apoptosis fold increase (TK6 cells [3]; [8]): never reached a doubling; MNi frequency fold increase (TK6 cells [4]; 35 µM, 26 h): statistically significant increase |
| CNC(C)C(=O)c1ccc(C)cc1 (stereo not shown) [mephedrone] | – | – | – | – | – | – | – | concentration that increased O2•− levels (HepG2): 1 mM |
| COc1ccc(OC)c(CCN)c1 [2C-H, 2,5-dimethoxyphenethylamine] | 97.5% ± 0.9 | 81.1% ± 1.8 | 85.0% ± 2.4 | 74.0% ± 1.8 | 34.1% ± 1.2 | 13.0% ± 1.5 | up to 35 µM | concentration up to which no cytotoxicity and cytostasis was induced (TK6 cells [1]): up to 35 µM; apoptosis fold increase (TK6 cells [3]; [8]): never reached a doubling; MNi frequency fold increase (TK6 cells [4]; 35 µM, 26 h): statistically significant increase |
| CCCC(C(=O)c1ccc2c(c1)OCO2)N1CCCC1 (stereo not shown) [MDPV] | – | – | – | – | – | – | – | superoxide levels (SH-SY5Y): increase in superoxide levels; concentration that increased O2•− levels (HepG2): 2 mM |
| CC(N)Cc1ccccc1 (stereo not drawn) [amphetamine, α-methylphenylethylamine] | – | – | – | – | – | – | – | mitochondrial superoxide levels (HepG2 cells): increase mitochondrial superoxide levels |
| CNC(C)C(=O)c1ccc2c(c1)OCO2 (stereo not shown) [methylone] | – | – | – | – | – | – | – | superoxide levels (SH-SY5Y): increase in superoxide levels |
| CCCC(C(=O)c1ccc2ccccc2c1)N1CCCC1 (stereo not shown) [naphyrone] | – | – | – | – | – | – | – | concentration that increased O2•− levels (HepG2): 0.2 mM |
| CC(N)Cc1ccc(F)cc1 (stereo not shown) [4-fluoroamphetamine, 4-Fluoroamphetamine] | – | – | – | – | – | – | – | mitochondrial superoxide levels (HepG2 cells): increase mitochondrial superoxide levels |
| c1ccc2c(c1)cc1ccc3cccc4ccc2c1c34 [benzo [a] pyrene] | – | – | – | – | – | – | – | micronuclei induction (TK6 cells [7]): failed to induce micronuclei |
| CCCC(C(=O)c1ccccc1)N1CCCC1 (stereo not shown) [αPVP] | – | – | – | – | – | – | – | superoxide levels (SH-SY5Y): increase in superoxide levels |
| CC(N)Cc1ccc(Cl)cc1 (stereo not shown) [4-chloroamphetamine] | – | – | – | – | – | – | – | mitochondrial superoxide levels (HepG2 cells): increase mitochondrial superoxide levels |
| COc1cc(CCN)c(OC)cc1Br [2C-B, 2,5-dimethoxy-4-bromophenethylamine] | 95.9% ± 0.7 | 93.1% ± 2.1 | 69.7% ± 1.6 | 63.1% ± 1.6 | 10.0% ± 1.8 | 0.0% | up to 35 µM | concentration up to which no cytotoxicity and cytostasis was induced (TK6 cells [1]): up to 35 µM; apoptosis fold increase (TK6 cells [3]; 25 µM and 35 µM, vs C (-)): statistically significant increase; MNi frequency fold increase (TK6 cells [4]; [9]): increased at both the tested concentrations; relative genotoxic potency (TK6 cells [4]): stronger genotoxic agents than 2C-I and 2C-H |

From article PMC7766159, “Novel Psychoactive Phenethylamines: Impact on Genetic Material” (International Journal of Molecular Sciences, 2020)
